In patent US10399931B2, “Octahydroanthracene compound, preparation method and application thereof” (SHANDONG XINHUA PHARMACEUTICAL CO., LTD., priority 2016, dated 2019):
Where two headings read alike, the source gives them in different places.

Columns and labels:
[1] = system: Human leukemia HL60 cells; assay: MTT assay, proliferation of human leukemia HL60 cells; assay type: cell-based; conditions: for inhibition at 10 µM / inhibition at 0.01 µM / inhibition at 0.1 µM / inhibition at 1 µM: Mean ± SE, read-out: Inhibitive rate (%) against HL60 cells; for inhibition at 0.01 µM: HL-60, 0.01 μmol/L; for inhibition at 0.1 µM: HL-60, 0.1 μmol/L; for inhibition at 1 µM: HL-60, 1 μmol/L; for IC50: MTT, read-out: IC50 against HL60 cells
Protocol: (§1) The survival rate of cells was determined by MTT assay, which is based on the metabolic reduction of 3-(4,5-dimethyl-2thiahiazoyl)-3,5-di-phenyl-tetrazolium bromide (MTT) by viable cells. MTT is a yellow compound, a dye that accepts hydrogen ion, which can act on the respiratory chain in the mitochondria of viable cells. Under the action of succinate dehydrogenase and cytochrome C, the tetrazolium ring was cleaved to form blue Formazan crystals, and the amount of Formazan crystals generated was only proportional to the number of the viable cells. The enzymes disappeared in dead cells, so Formazan crystals could not be dissolved in MTT solution containing 20% sodium dodecyl sulfate (pH 4.7).
(§2) The cells in the logarithmic growth phase were selected and adjusted to an appropriate cell density, seeded in a 96-well plate, 100 μl/well, and cultured in a 37° C., 5% CO2 incubator. The cells were allowed to adhere overnight, then the culture medium was replaced and the drug was added to cultivate for 48 h. A blank control group, a drug administration group and a positive control group were set, with four repeats in each group.
(§3) After 48 h of drug treatment, the cells were incubated with 0.25 mg/ml MTT at 37° C. for 3-4 h, and 100 μl of dimethyl sulfoxide (DMSO) was added to each well after aspirating the culture solution.

[2] = system: Human cutaneous T-cell lymphoma Hut102 cells; assay: MTT assay, proliferation of human cutaneous T-cell lymphoma Hut102 cells; assay type: cell-based; conditions: HuT-102, 10 μM, Mean ± SE, read-out: Inhibitive rate (%) against Hut102 cells
Protocol: as §1, §2, §3

RXR = assay: Verification of RXR target, dual-luciferase reporter in transfected 293T cells; assay type: cell-based, Human; conditions: 20 nM, 48 h; for Relative activity (RXR): relative to CON = 1; for Flu (firefly luciferase signal) / Flu/Rlu / Rlu (Renilla luciferase signal): transfected 293T cells
HDAC = assay: Verification of HDAC target, HDAC fluorometric activity assay on A549 cell lysate; conditions: 20 μM, Mean
Protocol: All the compounds were prepared into mother liquors with the same concentration (100 mmol/L) and stored at a temperature of −20° C. […] The DMSO sample was tested at a final concentration of 1%.
A substrate containing an acetylated lysine chain was added to the sample (cell lysate buffer), and the active HDAC in the sample deacetylated the lysine chain on the substrate to activate the substrate. Further, a lysine luminescent reagent is added to generate fluorescence, and the signal was recorded by a microplate reader to indicate the activity of HDAC in the sample.
2) Detection Method • a) Dissolving 50 μg untreated A549 cell lysate in 85 μL (final volume) ddH2O. For the positive blank group, adding 2 μL HeLA nuclear extract first, following by adding 83 μL ddH2O. In the negative blank group, by adding 2 μL Trichostatin A and 83 μL ddH2O. • b) Adding 10 μL 10× buffer to each well. • c) Adding 5 μL HDAC fluorogenic substrate to each well, and adding the drug to make the final concentration reach the set concentration, mixing well, and incubating at 37° C. for 30 min. • d) Adding 10 μL lysine developer, mixing well, then stopping the reaction, incubating for 30 min at 37° C. • e) Detecting the fluorescence value by the microplate reader (condition: emission wavelength/excitation wavelength is 350-380/440-460 nm).

[3] = Homo sapiens, HL-60, 48 h, 10 μM, 48 h
[4] = Homo sapiens, HL-60, 10 μmol/L (rescreening)
[5] = Homo sapiens, HL-60, 48 h, 48 h

Row | Compound | inhibition at 10 µM [1, 3] | inhibition at 10 µM [2] | melting point | inhibition at 0.01 µM ([1]; Homo sapiens) | inhibition at 0.1 µM ([1]; Homo sapiens) | inhibition at 1 µM ([1]; Homo sapiens) | inhibition at 10 µM [1, 4] | IC50 [1, 5] | IC50 ([1]; 48 h) | Relative activity (RXR) (RXR) | Flu (firefly luciferase signal) (RXR) | Flu/Rlu (RXR) | Rlu (Renilla luciferase signal) (RXR) | Inhibitive rate of HDAC activity of A549 cells (HDAC)
1 | CC1(C)CCC(C)(C)c2c1cc1c(c2NC(=O)c2ccc(NC(=O)NCCO)cc2)C(C)(C)CCC1(C)C [OAB-17, 1-(2-hydroxy) ethyl-3-{4-[(1,1,4,4,5,5,8,8-octamethyl-1,2,3,4,5,6,7,8-octahydro-9-anthryl)carbamoyl]phenyl} urea] | 33.6 ± 0.7% | 9.22 ± 1.29% | 284 to 287 °C | – | – | – | – | – | – | – | – | – | – | –
2 | CN(C)CCNC(=O)Nc1ccc(C(=O)Nc2c3c(cc4c2C(C)(C)CCC4(C)C)C(C)(C)CCC3(C)C)cc1 [OAB-13, 1-[2-(N,N-dimethylamino)]ethyl-3-{4-[(1,1,4,4,5,5,8,8-octamethyl-1,2,3,4,5,6,7,8-octahydro-9-anthryl)carbamoyl]phenyl} urea] | – | 39.8 ± 0.81% | – | 12.6 ± 0.7% | 11.4 ± 0.88% | 53.3 ± 1.22% | 79.93 ± 0.16% | < 10 µM | 6.65 ± 2.93 µM | 1.11 | 76228 | 1.95 | 39025 | 3.19%
3 | CCN(CC)CCNC(=O)Nc1ccc(C(=O)Nc2c3c(cc4c2C(C)(C)CCC4(C)C)C(C)(C)CCC3(C)C)cc1 [OAB-12, 1-[2-(N,N-diethylamino)]ethyl-3-{4-[(1,1,4,4,5,5,8,8-octamethyl-1,2,3,4,5,6,7,8-octahydro-9-anthryl)carbamoyl]phenyl} urea] | – | 43.7 ± 3.98% | – | 8.96 ± 1.45% | 11.8 ± 1.33% | 73 ± 1.31% | 78.94 ± 0.42% | – | – | 0.85 | 4013 | 1.49 | 2686 | 4.17%
4 | CC1(C)CCC(C)(C)c2c1cc1c(c2NC(=O)c2ccc(C(=O)NCCN)cc2)C(C)(C)CCC1(C)C [OAA-6, N-(2-amino) ethyl-4-[(1,1,4,4,5,5,8,8-octamethyl-1,2,3,4,5,6,7,8-octahydro-9-anthryl)carbamoyl] benzamide] | > 50% | 23.9 ± 1.03% | – | 1.2 ± 0.27% | 13.4 ± 1.5% | 76.73 ± 0.07% | 79.74 ± 0.46% | < 10 µM | 5.63 ± 1.14 µM | 1.47 | 452598 | 2.59 | 174827 | −11.07%
